{
  "source": "paper PMC4725915",
  "about": "“Ruthenium(II) Complexes with 2-Phenylimidazo[4,5-f][1,10]phenanthroline Derivatives that Strongly Combat Cisplatin-Resistant Tumor Cells” (Scientific Reports, 2016)",
  "format_in_all_cases": "cell-based, human",
  "key": {"A549R cells [1]": {"tested_on": "A549R cells", "assay": "Cell cycle analysis (PI, FACS)", "details": "24 h", "experimental": "Cell proliferation is activated under pathological conditions and plays a crucial role in cancer cell regeneration. Deregulated cell-cycle control is a fundamental aspect of cancer and the process is related to the proliferation and death of cancer cells. Therefore, the effect of cyclometalated complex 4 on cell cycles was investigated using fluorescence-activated cell sorting (FACS) analysis of the DNA content. […] A higher dose of complex 4 (2.0 μM) elicited a strong G2/M arrest of A549R cells, accounting for 46% of the cell population (control, 12.82%). The enrichment of the G2/M phase of the cell cycle of A549R cells may have led to their apoptosis by disrupting the cell cycle.\nA549R cells were treated with different concentrations of complex 4 (i.e., 0.5, 1.0 and 2.0 μM) for 24 h. The cells were collected and fixed in 2 mL of 70% cold aqueous ethanol (v/v). After incubation, the cells were centrifuged and washed three times with cold PBS and resuspended in 0.5 mL of PBS. To a 0.5 mL cell sample, […] of RNase A (1 mg/mL in PBS) was added and incubated for 30 min at 37 °C; then, […] of a PI ([…] in PBS) solution was added after gentle mixing for 5 min at 37 °C in the dark. The samples were resuspended and 10,000 cells were analyzed for each sample by a BD FACS Calibur cytometer (Becton Dickinson, Heidelberg, Germany). The data were acquired and analyzed with ModFit LT 3.2."}, "[2]": {"tested_on": "cancer cell lines (HeLa, A549, A549R)", "assay": "MTT cytotoxicity, all tested cancer cell lines taken together", "details": "48 h, read-out: IC50 toward all the tested cancer cell lines", "experimental": "(§1) Compounds 1–4 were evaluated against three tumor cell lines derived from different tissues, including the cervix (HeLa), lung (A549) and cisplatin-resistant lung (A549R) tissues. For comparison, the cytotoxicity of cisplatin was also evaluated. As a control, the toxicities of the complexes were also tested against the normal human cell line (LO2).\n(§2) The cytotoxicity of the ruthenium complexes and cisplatin were determined by an MTT assay. Briefly, cells were seeded into 96-well microtiter plates at 1 × 10^4 cells per well and grown overnight at 37 °C in a 5% CO2 incubator; then, different concentrations of the complexes in cell culture medium were added to the cultures. The plates were then incubated in an incubator for 48 h under the same conditions. The stock MTT dye solution (15 μL, 5 mg/mL) was added to each well. After 4 h of incubation, the cultures were removed and 150 μL of DMSO was added to each well. The optical density of each well was measured on a microplate spectrophotometer at a wavelength of 595 nm."}, "A549R cells [3]": {"tested_on": "A549R cells", "assay": "Real-time cell growth and proliferation assay (xCELLigence)", "experimental": "In addition, a real-time cell growth and proliferation assay using an xCELLigence System was utilized to confirm the high toxicity of complex 4 on A549R cells. […] In contrast, A549R cells were killed by treatment with complex 4 in a concentration-dependent manner.\nThis experiment was performed using an xCELLigence RTCA DP system real time cell analyzer (Roche Diagnostics GmbH, Germany). In brief, 80 μL of cell culture media was added to each well of a 16-well plate (E-plate 16, Roche Diagnostics GmbH, Germany). The 16-well plates were then connected to the system and checked for suitable electrical contacts in the real time cell analyzer, and the background impedance was measured for 24 s. Meanwhile, the A549R cells were suspended in cell culture medium and adjusted to 5 × 10^4 cells/mL, and 100 μL of each cell suspension was added to each well of […]. Approximately 24 h after seeding, the A549R cells were in the logarithmic phase of growth, and a wide range of concentrations of complex 4 and cisplatin (100 μM) were added. The cells were automatically monitored every 15 min over 48 h by the xCELLigence system. Data were analyzed using RTCA software (version 1.2) that was supplied with the instrument."}, "A549R cells [4]": {"tested_on": "A549R cells", "assay": "Mitochondrial membrane potential (JC-1)", "details": "different concentrations (0.5, 1.0, 2.0 μM), 24 h", "description": "Mitochondria are the principal organelles related to energy metabolism and ATP synthesis; consequently, resistance against chemotherapeutic drugs can often be traced to the mitochondria. […] Mitochondrial dysfunction is involved in apoptotic cell death, and the loss of mitochondrial membrane potential (MMP, ΔΨm) is a hallmark of mitochondrial dysfunction. […] Confocal microscopy and flow cytometry were used to confirm whether complex 4-induced apoptosis occurred by damaging mitochondria, and the cationic dye JC-1 was used as the MMP-sensitive probe.\nA549R cells were cultured in 6-well tissue culture plates for 24 h and treated with complex 4 (0.5, 1.0 and 2.0 μM) for 24 h. After the treatment, the cells were collected and resuspended at 1 × 10^6 cells/mL in a pre-warmed staining working solution containing JC-1 (5 μg/mL) and incubated for 15 min at 37 °C. Subsequently, the cells were washed twice with pre-warmed PBS and analyzed immediately with a flow cytometer on a FACS Canto II (BD Biosciences, USA). Red and green mean fluorescence intensities were analyzed using FlowJo 7.6 software (Tree Star, OR, USA). […] After the treatment described above, the stained cells were visualized under an inverted fluorescence microscope (Zeiss Axio Observer D1). JC-1 fluorescence was measured with single excitation (488 nm) and dual emission (shift from green 530 nm to red 590 nm)."}, "A549R cells [5]": {"tested_on": "A549R cells", "assay": "AO/EB staining apoptosis assay", "details": "0.50–2.0 μM", "description": "Cell apoptosis is a naturally occurring, programmed and targeted cellular death mechanism that is very complex and is regulated by some proteins. This process is also greatly affected by extrinsic conditions. Therefore, it is important to study the influence of drug-induced cellular apoptosis. Firstly, the induction of A549R cell apoptosis by complex 4 was investigated by apoptosis assays using AO/EB staining and fluorescence microscopy. […] Necrotic cells are stained in red but have nuclear morphologies that resemble those of viable cells."}, "HeLa": {"tested_on": "HeLa", "assay": "MTT cytotoxicity assay, HeLa", "details": "48 h, mean ± SD of three experiments", "experimental": "as §1\n(§3) The human cervix carcinoma cell line (HeLa), the lung carcinoma cell lines (A549 and A549R), and the human hepatocyte cell line (LO2) were obtained from the Experimental Animal Center at Sun Yat-Sen University (Guangzhou, China). The cells were maintained in Dulbecco’s modified Eagle’s medium (DMEM, Gibco BRL) or Roswell Park Memorial Institute 1640 (RPMI 1640, Gibco BRL) medium supplemented with 10% fetal bovine serum (FBS, Gibco BRL), 100 μg/mL streptomycin, and 100 U/mL penicillin (Gibco BRL) in a humidified incubator under 5% CO2 and 20% O2 at 37 °C. To maintain the resistant phenotype, A549R cells were incubated with 5 μM cisplatin and cultured in drug-free medium for at least a week before use.\nas §2"}, "A549R": {"tested_on": "A549R", "assay": "MTT cytotoxicity assay, cisplatin-resistant A549R", "details": "48 h, mean ± SD of three experiments", "experimental": "as §1, §3, §2"}},
  "data": [
    {"substance": "Ru(phen)(bzq)(tbtfpip)(PF6) [Complex 4]", "values": [
      {"measurement": "G2/M share of the cell population", "setting": "A549R cells [1]; 2.0 μM, control 12.82%", "value": 46, "unit": "%"},
      {"measurement": "percentage of cells in the G0/G1 phase", "setting": "A549R cells [1]; control 68.46", "value": 30.87, "unit": "%"},
      {"measurement": "IC50", "setting": "[2]", "value": "800 to 2400", "unit": "nM"},
      {"measurement": "effect on A549R cell proliferation (xCELLigence)", "setting": "A549R cells [3]; 0.5 μM", "value": "began to die after a short delay"},
      {"measurement": "effect on A549R cell proliferation (xCELLigence)", "setting": "A549R cells [3]; 2.0 μM", "value": "rapidly abolished cellular proliferation"},
      {"measurement": "mitochondrial membrane potential (MMP)", "setting": "A549R cells [4]", "value": "loss of MMP"},
      {"measurement": "AO/EB staining result", "setting": "A549R cells [5]", "value": "predominantly induced apoptosis"},
      {"measurement": "IC50", "setting": "HeLa", "value": "2400 ± 300", "unit": "nM"},
      {"measurement": "IC50", "setting": "A549R", "value": "800 ± 100", "unit": "nM"}
    ]}
  ]
}
